Common to all, as to test: NCI tumour cell line growth inhibition, 48 h
In assay [1] the test system is SNB-19 CNS.
Assay [2] deals with OVCAR-4 ovarian.
Assay [3] has as its system SF-268 CNS.
Assay [4] concerns CAKI-1 renal.
Assay [5] has as its system K-562 leukemia.
Assay [6] relates to NCI-H23 lung.
Assay [7] relates to A549 NSCLC.
Assay [8] deals with HCT-15 colon.
Assay [9] relates to NCI-H226 lung.
Assay [10] deals with HL-60(TB) leukemia.

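Dose response: 5 concentrations. Exposure: 48 h. Format: 96-well plates. Endpoint: linear interpolation; highest concentration if not reached. GI50 = concentration required for 50% inhibition of growth. TGI: concentration producing complete growth inhibition.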

`COc1ccc(OC)c(CNc2ccc(O)c(C(=O)NCCc3ccc(F)cc3)c2)c1`: the TGI in assay [1] is 54.1 µM; in assay [2], 66.2 µM; in assay [3], 29.1 µM; in [4], 87.9 µM; in assay [5], 19.1 µM; in assay [6], more than 100 µM. Also, the TGI in assay [7] was more than 100 µM; in assay [8], 44.9 µM.

With `Cc1cc(NC2=NCCO2)c2c(c1C)CCCC2`, the TGI in [1] is 38.8 µM; in assay [2], more than 100 µM; in assay [9], 12.4 µM; in assay [3], 54.7 µM; in assay [10], 33.2 µM; in assay [6], more than 100 µM. The values for the TGI in assay [7] and in assay [8] were more than 100 µM and 49.6 µM, respectively.

Turning to `ClCc1c(-c2ccccc2)nn(-c2ccccc2)c1CCl`, the TGI in assay [1] came to 43 µM; in assay [2] it was 3.83 µM; in [9] it was 72.8 µM; in [3], 43.6 µM; in assay [4] it was 3.71 µM; in assay [10], 6.13 µM. Besides, the figures for the TGI in [6], in assay [7] and in assay [8] were 34.7 µM, 37.3 µM and 27 µM, respectively.

With `CCCCNC(=S)/N=C/c1c(O)c2ccccc2oc1=O`, the TGI in [1], in [2], in assay [9], in assay [4], in [6] and in assay [7] was more than 100 µM throughout. In assay [8], this compound had a TGI of more than 100 µM.

On to `COc1ccc(C2C(C(=O)O)=C(COC(C)=O)Oc3cc4c(cc32)OCO4)cc1` (stereo not given), for which the TGI in [1], in [2], in assay [4], in assay [10], in assay [5] and in [6] was more than 100 µM in each case. Also, the TGI in assay [7] and in [8] was more than 100 µM in each case.

As to `CC(=O)NC1C(OCc2ccccc2)OC(CO)C(O)C1OCC(=O)NC(C)C(=O)NC(CCC(=O)NCCCCCC(=O)Nc1ccc2c(c1)CN1C(=O)c3ccccc3C1=N2)C(N)=O` (stereo not given), the TGI in assay [1], in [2], in [3], in assay [4], in assay [10] and in assay [5] was more than 100 µM throughout. Further, the TGI in assay [6], in [7] and in assay [8] was more than 100 µM each time.

`Cc1cc(S(=O)(=O)O)ccc1N=Nc1ccc(N=Nc2c(O)ccc3ccccc23)c(C)c1`: the TGI in assay [1], in assay [2], in assay [9], in assay [3], in assay [4] and in assay [5] was more than 100 µM each time. In addition, the TGI in [6], in assay [7] and in assay [8] was more than 100 µM throughout.

For the compound `C=CCC1NCCC2=C1C(S(=O)(=O)c1ccc(C)cc1)c1ccccc12` (stereo not given), the TGI in assay [1] is 33.2 µM; in assay [2], 25.7 µM; in assay [9] it was 35.9 µM; in assay [3], 34.7 µM; in assay [4], 19.6 µM; in assay [5] it was 63.4 µM. Further, the TGI in [6] stood at 36.4 µM; in assay [7], 29.2 µM; in assay [8], 27.8 µM.

Take `CC1NOC(NS(=O)(=O)c2ccc(N=Nc3c(O)c(C(=O)O)cc4ccccc34)cc2)C1C` (stereo not given): the TGI in [1], in assay [2], in [9], in [3], in assay [4] and in [10] was more than 100 µM each time. Moreover, the TGI in assay [5], in assay [7] and in [8] was more than 100 µM throughout.

With `c1ccc(C(CCN2CCCC2)c2ccccn2)cc1` (stereo not given), the TGI in [1], in assay [2], in assay [9], in assay [3], in assay [4] and in assay [5] was more than 100 µM each time. The TGI in assay [6], in assay [7] and in assay [8] was more than 100 µM throughout.

On to `Cc1cc2nc3n(c2cc1C)C(c1c(F)cccc1F)SC3` (stereo not given), for which the TGI in assay [1] came out at 53.4 µM; in assay [2], 62.2 µM; in assay [9], 23.8 µM; in assay [3], 56.2 µM; in assay [4], 60.3 µM; in assay [5], 63.9 µM. Further, the TGI in assay [6] was 38.2 µM; in assay [7], 42.4 µM; in [8], more than 10 µM.

Take `CCN(CC)C(=O)c1c(N2CCOCC2)cc(N(CC)CC)oc1=O`: the TGI in [1], in [2], in assay [9], in [3], in assay [10] and in assay [5] was more than 100 µM each time. Further, the TGI in assay [6], in assay [7] and in [8] was more than 100 µM in each case.

For the compound `NCCCn1c2c(c3ccc([N+](=O)[O-])cc3c1=O)C(=O)c1cc3c(cc1-2)OCO3`, the GI50 in assay [4] is less than 0.01 µM; in assay [10], less than 0.0155 µM; in assay [5] it was 0.0581 µM; in assay [6], 0.0228 µM; in [8], 0.0282 µM. Besides, the TGI in assay [4] amounted to 0.491 µM; in assay [6], 1.14 µM; in [8], 0.201 µM.

With `COc1ccc(N2C(=O)C3c4[nH]c5ccccc5c4C4CCC(C(C)C)CC4C3C2=O)cc1` (stereo not given), the TGI in assay [1], in assay [2], in assay [9], in assay [3], in assay [4] and in assay [5] was more than 100 µM in each case. Moreover, the TGI in assay [6], in assay [7] and in assay [8] was more than 100 µM each time.

The values above are taken from PubChem BioAssay (NCI).
